PubChem BioAssay AID328 (DTP/NCI, 2004)
Where “and” joins values, the source holds several entries; their conditions need not be identical. Equal values may be shown once. Toxic doses and inconclusive results are not listed.

Test system: BDF1 mice, P388 leukemia ip, median survival T/C
Assay: NCI In Vivo Anticancer Drug Screen. Data for tumor model P388 Leukemia (intraperitoneal) in B6D2F1 (BDF1) mice
Conditions: endpoint: median survival time, higher = longer survival
Outline: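 Each value expresses how treatment altered survival: treated-mouse outcome over vehicle-mouse outcome, both groups bearing the transplanted tumour.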

[1] = dose: 50.0 mg/kg/injection, schedule: Q01DX009 (ip), vehicle: saline + alcohol
[2] = dose: 50.0 mg/kg/injection, schedule: Q01DX009 (ip), vehicle: Klucel (hydroxypropylcellulose) (HPC)
[3] = dose: 200.0 mg/kg/injection, schedule: Q01DX009 (ip), vehicle: Klucel (hydroxypropylcellulose) (HPC)
[4] = dose: 25.0 mg/kg/injection, schedule: Q01DX009 (ip), vehicle: Klucel (hydroxypropylcellulose) (HPC)
[5] = dose: 25.0 mg/kg/injection, schedule: Q01DX009 (ip), vehicle: saline
[6] = dose: 100.0 mg/kg/injection, schedule: Q04DX003 (ip), vehicle: saline
[7] = dose: 200.0 mg/kg/injection, schedule: Q04DX003 (ip), vehicle: saline
[8] = dose: 50.0 mg/kg/injection, schedule: Q01DX009 (ip), vehicle: saline with Tween-80
[9] = dose: 200.0 mg/kg/injection, schedule: Q01DX009 (ip), vehicle: saline with Tween-80
[10] = dose: 3.0 mg/kg/injection, schedule: Q01DX009 (ip), vehicle: saline
[11] = dose: 100.0 mg/kg/injection, schedule: Q01DX009 (ip), vehicle: saline with Tween-80
[12] = dose: 100.0 mg/kg/injection, schedule: Q04DX003 (ip), vehicle: saline with Tween-80
[13] = dose: 200.0 mg/kg/injection, schedule: Q04DX003 (ip), vehicle: saline with Tween-80
[14] = dose: 400.0 mg/kg/injection, schedule: Q04DX003 (ip), vehicle: saline with Tween-80

`CCOC(=O)C(C(=O)COC)C(=O)OCC` was tested. Which T/C (dose: 12.5 mg/kg/injection, schedule: Q04DX003 (ip), vehicle: water) did it give?
Its T/C is 100 % of control.

What about the T/C (dose: 25.0 mg/kg/injection, schedule: Q04DX003 (ip), vehicle: water) of the same molecule?
Its T/C is 108 % of control.

What about the T/C (dose: 50.0 mg/kg/injection, schedule: Q04DX003 (ip), vehicle: water) of the same molecule?
Its T/C is 105 % of control.

What about the T/C (dose: 100.0 mg/kg/injection, schedule: Q04DX003 (ip), vehicle: water) of the same molecule?
The T/C was 115 % of control.

And the T/C (dose: 200.0 mg/kg/injection, schedule: Q04DX003 (ip), vehicle: water)?
Its T/C is 115 % of control.

`c1ccc(C23c4ccccc4C(=NC4CCCCC4)C2N3C2CCCCC2)cc1` (stereo not drawn) was tested. Which T/C (dose: 100.0 mg/kg/injection, schedule: Q04DX003 (ip), vehicle: Klucel (hydroxypropylcellulose) (HPC)) did it give?
The T/C was 90 % of control.

What about the T/C (dose: 200.0 mg/kg/injection, schedule: Q04DX003 (ip), vehicle: Klucel (hydroxypropylcellulose) (HPC)) of the same molecule?
The T/C was 100 % of control.

Which T/C [1] does the source give for `[N-]=[N+]=NC(=O)c1cccs1` here?
Its T/C is 99 % of control.

How did the T/C (dose: 12.5 mg/kg/injection, schedule: Q04DX003 (ip), vehicle: saline with Tween-80) turn out when `CCCCCCCCCCCCCCCCCC(=O)NN` was run?
Its T/C is 105 % of control.

And the T/C (dose: 25.0 mg/kg/injection, schedule: Q04DX003 (ip), vehicle: saline with Tween-80)?
The T/C was 98 % of control.

And the T/C (dose: 50.0 mg/kg/injection, schedule: Q04DX003 (ip), vehicle: saline with Tween-80)?
Its T/C is 98 % of control.

With `CC(C)(C)C1C2N1C1(c3ccccc3)OC2(c2ccccc2)c2ccccc21` (stereo not drawn) as the molecule, how does the T/C [2] read?
Its T/C is 106 % of control.

What about the T/C (dose: 100.0 mg/kg/injection, schedule: Q01DX009 (ip), vehicle: Klucel (hydroxypropylcellulose) (HPC)) of the same molecule?
The T/C was 100 % of control.

What about the T/C [3] of the same molecule?
The T/C was 104 % of control.

Which T/C (dose: 95.0 mg/kg/injection, schedule: Q01DX001 (ip), vehicle: Klucel (hydroxypropylcellulose) (HPC)) does the source give for `COc1cc2c(cc1OC)[C@H]1CNC[C@H]1[C@@H](c1ccccc1)C2` here?
Its T/C is 100 % of control.

And the T/C (dose: 100.0 mg/kg/injection, schedule: Q01DX001 (ip), vehicle: Klucel (hydroxypropylcellulose) (HPC))?
The T/C was 100 % of control and 110 % of control.

What about the T/C (dose: 135.0 mg/kg/injection, schedule: Q01DX001 (ip), vehicle: Klucel (hydroxypropylcellulose) (HPC)) of the same molecule?
The T/C was 104 % of control.

What about the T/C (dose: 200.0 mg/kg/injection, schedule: Q01DX001 (ip), vehicle: Klucel (hydroxypropylcellulose) (HPC)) of the same molecule?
Its T/C is 95 % of control and 104 % of control.

And the T/C (dose: 300.0 mg/kg/injection, schedule: Q01DX001 (ip), vehicle: Klucel (hydroxypropylcellulose) (HPC))?
Its T/C is 90 % of control.

Which results are given for `CC1OC(OC2CC(O)C3(CO)C4C(O)CC5(C)C(C6=CC(=O)OC6)CCC5(O)C4CCC3(O)C2)C(O)C(O)C1O` (stereo not drawn)?
T/C (dose: 1.5 mg/kg/injection, schedule: Q01DX010 (ip), vehicle: saline): 90 % of control; T/C (dose: 3.0 mg/kg/injection, schedule: Q01DX010 (ip), vehicle: saline): 90 % of control

For `CN(C)c1ccc2c(N(C)C)cc(N(C)C)nc2c1`, which T/C (dose: 12.5 mg/kg/injection, schedule: Q01DX009 (ip), vehicle: Klucel (hydroxypropylcellulose) (HPC)) is on record?
The T/C was 111 % of control.

What about the T/C [4] of the same molecule?
The T/C was 89 % of control.

What about the T/C [2] of the same molecule?
Its T/C is 120 % of control.

With `Cn1cnc([N+](=O)[O-])c1[Se]c1ncnc2c1ccn2C1OC(CO)C(O)C1O` (stereo not drawn) as the molecule, how does the T/C (dose: 6.25 mg/kg/injection, schedule: Q01DX009 (ip), vehicle: saline) read?
The T/C was 107 % of control.

And the T/C (dose: 12.5 mg/kg/injection, schedule: Q01DX009 (ip), vehicle: saline)?
The T/C was 88 % of control.

And the T/C [5]?
Its T/C is 102 % of control.

What about the T/C [6] of the same molecule?
Its T/C is 100 % of control.

What about the T/C [7] of the same molecule?
The T/C was 104 % of control.

Which T/C (dose: 0.12 mg/kg/injection, schedule: Q01DX009 (ip), vehicle: saline) does the source give for `CCCCCC[C@@H](O)[C@@H]1C2=C(C[C@H]([C@H](O)[C@@H]3CC=CC(=O)O3)CC3=C(C(=O)OC3=O)[C@@H]1O)C(=O)OC2=O` here?
Its T/C is 107 % of control.

What about the T/C (dose: 0.25 mg/kg/injection, schedule: Q01DX009 (ip), vehicle: saline) of the same molecule?
Its T/C is 109 % of control.

And the T/C (dose: 0.5 mg/kg/injection, schedule: Q01DX009 (ip), vehicle: saline)?
The T/C was 107 % of control.

What about the T/C (dose: 1.0 mg/kg/injection, schedule: Q01DX009 (ip), vehicle: saline) of the same molecule?
Its T/C is 119 % of control.

What does the source list for `CC1(C)CC(=O)C=C(NCc2ccccc2)C1`?
T/C (dose: 37.5 mg/kg/injection, schedule: Q01DX009 (ip), vehicle: Klucel (hydroxypropylcellulose) (HPC)): 100 % of control; T/C (dose: 75.0 mg/kg/injection, schedule: Q01DX009 (ip), vehicle: Klucel (hydroxypropylcellulose) (HPC)): 100 % of control; T/C (dose: 150.0 mg/kg/injection, schedule: Q01DX009 (ip), vehicle: Klucel (hydroxypropylcellulose) (HPC)): 100 % of control

Which results are given for `CN=S(=O)(OCCN(C)CCOS(=O)(=NC)c1ccc(C)cc1)c1ccc(C)cc1` (stereo not drawn)?
T/C [1]: 112 % of control; T/C (dose: 100.0 mg/kg/injection, schedule: Q01DX009 (ip), vehicle: saline + alcohol): 103 % of control; T/C (dose: 200.0 mg/kg/injection, schedule: Q01DX009 (ip), vehicle: saline + alcohol): 116 % of control

For `c1ccc(CN2C3Oc4ccccc4C2Oc2ccccc23)cc1`, which T/C [8] is on record?
Its T/C is 94 % of control.

And the T/C [9]?
Its T/C is 87 % of control.

What does the source list for `COc1cc(N=Nc2c[nH]c3ccccc23)c(OC)cc1N=Nc1ccc([N+](=O)[O-])cc1`?
T/C (dose: 50.0 mg/kg/injection, schedule: Q01DX005 (ip), vehicle: saline with Tween-80): 92 % of control; T/C (dose: 100.0 mg/kg/injection, schedule: Q01DX005 (ip), vehicle: saline with Tween-80): 106 % of control; T/C (dose: 200.0 mg/kg/injection, schedule: Q01DX005 (ip), vehicle: saline with Tween-80): 111 % of control

For `COC(=O)CC1CCN(C(=O)OCc2ccccc2)C(Cc2c[nH]c3ccccc23)C1=O` (stereo not drawn), which T/C (dose: 2.0 mg/kg/injection, schedule: Q01DX009 (ip), vehicle: saline) is on record?
Its T/C is 105 % of control.

And the T/C [10]?
The T/C was 109 % of control.

And the T/C (dose: 4.0 mg/kg/injection, schedule: Q01DX009 (ip), vehicle: saline)?
The T/C was 114 % of control.

What about the T/C (dose: 8.0 mg/kg/injection, schedule: Q01DX009 (ip), vehicle: saline) of the same molecule?
Its T/C is 98 % of control.

And the T/C (dose: 10.0 mg/kg/injection, schedule: Q01DX009 (ip), vehicle: saline)?
The T/C was 109 % of control.

What about the T/C (dose: 16.0 mg/kg/injection, schedule: Q01DX009 (ip), vehicle: saline) of the same molecule?
Its T/C is 102 % of control.

What about the T/C (dose: 30.0 mg/kg/injection, schedule: Q01DX009 (ip), vehicle: saline) of the same molecule?
The T/C was 104 % of control.

And the T/C (dose: 32.0 mg/kg/injection, schedule: Q01DX009 (ip), vehicle: saline)?
The T/C was 95 % of control.

And the T/C (dose: 60.0 mg/kg/injection, schedule: Q01DX009 (ip), vehicle: saline)?
Its T/C is 109 % of control.

With `N=C1C=C[C@]2(O)C[C@H](Cl)CN12` as the molecule, how does the T/C (dose: 0.38 mg/kg/injection, schedule: Q01DX009 (ip), vehicle: saline) read?
Its T/C is 104 % of control.

And the T/C (dose: 0.75 mg/kg/injection, schedule: Q01DX009 (ip), vehicle: saline)?
Its T/C is 104 % of control.

And the T/C (dose: 1.5 mg/kg/injection, schedule: Q01DX009 (ip), vehicle: saline)?
The T/C was 114 % of control.

And the T/C [10]?
The T/C was 98 % of control.

And the T/C (dose: 6.0 mg/kg/injection, schedule: Q01DX009 (ip), vehicle: saline)?
The T/C was 117 % of control.

For `Cc1cc(N(CCCl)CCCl)ccc1C=Nc1ccccc1C(=O)O`, which T/C [11] is on record?
The T/C was 164 % of control.

What about the T/C [9] of the same molecule?
The T/C was 180 % of control.

How did the T/C [5] turn out when `O=[N+]([O-])CC(O)c1ccc2ccccc2n1` (stereo not drawn) was run?
The T/C was 86 % of control.

And the T/C (dose: 50.0 mg/kg/injection, schedule: Q01DX009 (ip), vehicle: saline)?
The T/C was 86 % of control.

What about the T/C (dose: 50.0 mg/kg/injection, schedule: Q04DX003 (ip), vehicle: saline) of the same molecule?
Its T/C is 109 % of control.

And the T/C (dose: 100.0 mg/kg/injection, schedule: Q01DX009 (ip), vehicle: saline)?
The T/C was 89 % of control.

And the T/C [6]?
Its T/C is 95 % of control.

And the T/C [7]?
The T/C was 90 % of control.

With `Nc1nc(=O)c2ccccc2s1` as the molecule, how does the T/C [12] read?
The T/C was 105 % of control.

And the T/C [13]?
Its T/C is 111 % of control.

What about the T/C [14] of the same molecule?
Its T/C is 100 % of control.

Which results are given for `CCOC(=O)CNC(=O)Sc1ccc(C(C)(C)C)cc1`?
T/C [4]: 121 % of control; T/C [3]: 108 % of control

`CCOC(=O)CCc1nc(C(=O)OCC)c(C)c2nnnn12` was tested. Which T/C [12] did it give?
Its T/C is 99 % of control.

What about the T/C [13] of the same molecule?
Its T/C is 108 % of control.

What about the T/C [14] of the same molecule?
The T/C was 95 % of control.

Which results are given for `CC(=O)OCC1OC(N=[N+]=[N-])C(OC(C)=O)C(OC(C)=O)C1OC(C)=O` (stereo not drawn)?
T/C [8]: 93 % of control; T/C [11]: 108 % of control; T/C [9]: 99 % of control

What does the source list for `CNC(=S)NC1C2CC3CC(C2)CC1C3` (stereo not drawn)?
T/C [8]: 94 % of control; T/C [11]: 94 % of control; T/C [9]: 94 % of control

What does the source list for `O=C1c2ccccc2C(=Cc2ccccc2)c2ccccc21`?
T/C [11]: 118 % of control; T/C [9]: 100 % of control; T/C (dose: 400.0 mg/kg/injection, schedule: Q01DX009 (ip), vehicle: saline with Tween-80): 113 % of control
